In PMC2925893, “Structure Activity Relationship of Dendrimer Microbicides with Dual Action Antiviral Activity” (PLoS ONE, 2010):
Read-outs that look alike come from different tables or passages of the source.

How the values were obtained:
HIV-1 NL4.3 = assay: Time of addition assay in TZM-bl cells; assay type: cell-based
Method: TZM-bl cells were seeded in 96-well tissue culture plates at 2.5×10^4 cells per well in 100 µl of DMEM-10. Cells were grown for 12 h at 37°C in 5% CO2 after which triplicate wells were infected with NL4.3 at a multiplicity of infection of one by spinoculation. Briefly, DMEM-10 was removed from cells and replaced with 100 µl of virus in DMEM-10 and plates were centrifuged at 1200 g for 60 min at 17°C. Viral inoculum was removed and cells washed twice with 250 µl of cold DMEM-10 after which 100 µl of DMEM-10 or DMEM-10 containing drug was added at t = 0 to appropriate cells. DMEM-10 containing drug was subsequently added at t = 2, 3, 4, 5, 6, 8 and 24 h post infection to appropriate wells. At 31 h postinfection, HIV-1 replication was determined by measuring luciferase activity as above.

[1] = system: X4 (HXB2) HIV-1 envelope mediated cell-to-cell fusion; assay: Cell-to-cell fusion assay, X4 envelope; assay type: cell-based
Method: (§1) The gp120 gene from the R5 HIV-1 strain ADA and X4 HIV-1 strain HXB2 was cloned into a HIV-1 Env expression vector. Briefly, the 2.1 kb HIV-1 env within Kpn I and Bam HI restriction sites was cloned from viral genomic DNA into pSVIII-HXB2 Env expression vector [67]. The pcDNA3-CD4, pcDNA3-CCR5 and pcDNA3-CXCR4 plasmids express human CD4, R5 and X4 respectively. pSVTat expresses the HIV-1 Tat protein. Cell-cell fusion assays were conducted as described previously. Briefly, Cf2-Luc target cells seeded in 25 cm^2 tissue culture flasks were transfected with 1 µg of CD4 plasmid and 3 µg of R5 or X4 plasmid. 293T effector cells seeded in 6-well tissue culture plates were co-transfected with 3.4 µg of ADA or HXB2 gp120-expressing plasmid and 0.6 µg pSVTat. Target and effector cells were transfected using Lipofectamine 2000 (Invitrogen) according to the manufacturers' protocol. Effector cells expressing ADA or HXB2 Env were pre-incubated in DMEM-10 containing 10-fold increasing concentrations of efavarenz, T-20, dendrimer or no drug (untreated controls) for 30 min at 37°C. Approximately 2×10^4 effector cells were added to 2×10^4 Cf2-Luc target cells and were incubated at 37°C in replicate wells containing 200 µl of culture. Cells from replicate wells were harvested at 7 h post-mixing and assayed for luciferase activity (Promega) according to the manufacturers' protocol. […]

HIV-1 strains = assay: microbe, parasite or virus in culture; assay type: cell-based
Method: (§2) Fresh human PBMCs were isolated from screened donors, seronegative for HIV and hepatitis B virus. Cells were pelleted/washed 2-3 times by low speed centrifugation and resuspended in Dulbecco’s phosphate buffered saline (PBS) to remove contaminating platelets. The leukophoresed blood was then diluted 1:1 with PBS and layered over 14 ml of Ficoll-Hypaque density gradient (Lymphocyte Separation Medium, Cell Grow #85-072-CL, density 1.078 +/- 0.002 gm/ml) in a 50 ml centrifuge tube and then centrifuged for 30 min at 600g. Banded PBMCs were gently aspirated from the resulting interface and subsequently washed twice with PBS by low speed centrifugation. After the final wash, cells were counted by trypan blue exclusion and resuspended at 1 x 10^7 cells/ml in RPMI 1640 supplemented with 15% Fetal Bovine Serum (FBS), 2 mM L-glutamine, 4 µg/ml PHA-P. The cells were allowed to incubate for 48-72 h at 37°C. After incubation, PBMCs were centrifuged and resuspended in RPMI 1640 with 15% FBS, 2 mM L-glutamine, 100 U/ml penicillin, 100 µg/ml streptomycin, 10 µg/ml gentamycin, and 20 U/ml recombinant human IL-2. PBMCs were maintained in this medium at a concentration of 1-2 x 10^6 cells/ml with biweekly medium changes until used in the assay protocol. Monocytes were depleted from the culture as the result of adherence to the tissue culture flask.
For the standard PBMC assay, PHA-P stimulated cells from at least two normal donors were pooled, diluted in fresh medium to a final concentration of 1 x 10^6 cells/ml, and plated in the wells of a 96-well round bottom microplate at 50 µl/well (5 x 10^4 cells/well). […] Fifty microlitres of a predetermined dilution of virus stock was placed in each test well (final MOI ≅ 0.1). Wells with cells and virus alone were used for virus control. […] The PBMC cultures were maintained for seven days following infection, at which time cell-free supernate samples were collected and assayed for reverse transcriptase activity as described below.
A microtiter plate-based reverse transcriptase (RT) reaction was utilized. Tritiated thymidine triphosphate (^3H-TTP, 80 Ci/mmol, NEN) was received in 1:1 dH2O:ethanol at 1 mCi/ml. PolyrA:oligodT template-primer (Pharmacia) was prepared as a stock solution by combining 150 µl polyrA (20 mg/ml) with 0.5 ml oligodT (20 units/ml) and 5.35 ml sterile dH2O followed by aliquoting (1.0 ml) and storage at -20°C. The RT reaction buffer was prepared fresh on a daily basis and consisted of 125 µl 1.0 M EGTA, 125 µl dH2O, 125 µl 20% Triton X100, 50 µl 1.0 M Tris (pH 7.4), 50 µl 1.0 M DTT, and 40 µl 1.0 M MgCl2. The final reaction mixture was prepared by combining 1 part ^3H-TTP, 4 parts dH2O, 2.5 parts polyrA:oligodT stock and 2.5 parts reaction buffer. Ten microliters of this reaction mixture was placed in a round bottom microtiter plate and 15 µl of virus containing supernatant was added and mixed. The plate was incubated at 37°C for 60 min. Following incubation, the reaction volume was spotted onto DE81 filter-mats (Wallac), washed 5 times for 5 min each in a 5% sodium phosphate buffer or 2X saline sodium citrate (SSC, Life Technologies), 2 times for 1 min each in distilled water, 2 times for 1 min each in 70% ethanol, and then dried. Incorporated radioactivity (counts per minute, CPM) was quantified using standard liquid scintillation techniques.
(§3) The plate was read spectrophotometrically at 490/650 nm with a Molecular Devices Vmax plate reader

HIV-2 strains = assay: Anti-HIV activity in PHA-stimulated human PBMCs, supernatant RT activity readout; assay type: cell-based; conditions: PBMC
Method: as §2
For the standard PBMC assay, PHA-P stimulated cells from at least two normal donors were pooled, diluted in fresh medium to a final concentration of 1 x 10^6 cells/ml, and plated in the wells of a 96-well round bottom microplate at 50 µl/well (5 x 10^4 cells/well). […] Fifty microlitres of a predetermined dilution of virus stock was placed in each test well (final MOI ≅ 0.1). Wells with cells and virus alone were used for virus control. […]
A microtiter plate-based reverse transcriptase (RT) reaction was utilized. […] Incorporated radioactivity (counts per minute, CPM) was quantified using standard liquid scintillation techniques.
as §3

[2] = system: R5 (ADA) HIV-1 envelope mediated cell-to-cell fusion; assay: Cell-to-cell fusion assay, R5 envelope; assay type: cell-based
Method: as §1

HSV-2 strain G = system: HSV-2 strain G; design: method as in PMID 16740164; conditions: mouse, single dose; cited from earlier work
[3] = PBMC, multi-drug resistant HIV-1 MDR769

Question: Which “time of addition result” value (HIV-1 NL4.3; dendrimers at 20 and 100 µg/ml) does the source give for `c1cc(CN2CCCNCCNCCCNCC2)ccc1CN1CCCNCCNCCCNCC1` [AMD3100] here?
Answer: The value was “failed to block HIV-1 replication if the drug was added after virus addition”.

Question: And the “inhibition of cell-to-cell fusion” value [1]?
Answer: Its value is “failed to inhibit fusion”.

Question: Which EC50 (HIV-1 strains; Human immunodeficiency virus 1, CCR5, PBMC, Clade A (92RW016), CCR5) does the source give for `Cc1cn([C@H]2C[C@H](N=[N+]=[N-])[C@@H](CO)O2)c(=O)[nH]c1=O` [AZT, zidovudine] here?
Answer: The EC50 was 2 nM.

Question: And the EC50 (HIV-1 strains; Human immunodeficiency virus 1, CCR5, PBMC, Clade B (302056), CCR5)?
Answer: The EC50 was 10 nM.

Question: What about the EC50 (HIV-1 strains; Human immunodeficiency virus 1, CCR5, PBMC, Clade C (92BR025), CCR5) of the same compound?
Answer: The EC50 was 4 nM.

Question: And the EC50 (HIV-1 strains; Human immunodeficiency virus 1, CCR5, PBMC, Clade G (JV1083), CCR5)?
Answer: Its EC50 is 4 nM.

Question: What about the EC50 (HIV-1 strains; Human immunodeficiency virus 1, CCR5, PBMC, Clade O (BCF01), CCR5) of the same compound?
Answer: Its EC50 is 4 nM.

Question: And the EC50 (HIV-1 strains; Human immunodeficiency virus 1, CCR5, PBMC, SLKA (NSI), CCR5)?
Answer: Its EC50 is 4 nM.

Question: And the EC50 (HIV-1 strains; Human immunodeficiency virus 1, CCR5, PBMC, TEKI (NSI), CCR5)?
Answer: The EC50 was 2 nM.

Question: And the EC50 (HIV-1 strains; Human immunodeficiency virus 1, PBMC, PBMC, Clade D (92UG046), CXCR4)?
Answer: The EC50 was 3 nM.

Question: What about the EC50 (HIV-1 strains; Human immunodeficiency virus 1, PBMC, PBMC, Clade EA (CMU02), CXCR4) of the same compound?
Answer: Its EC50 is 8 nM.

Question: And the EC50 (HIV-1 strains; Human immunodeficiency virus 1, PBMC, PBMC, Clade F (93BR020), dual tropic)?
Answer: Its EC50 is 2 nM.

Question: What about the EC50 (HIV-1 strains; Human immunodeficiency virus 1, PBMC, PBMC, ROJO (SI), CXCR4) of the same compound?
Answer: Its EC50 is 2 nM.

Question: And the EC50 (HIV-1 strains; Human immunodeficiency virus 1, PBMC, PBMC, WEJO (SI), CXCR4)?
Answer: Its EC50 is 0.3 nM.

Question: What about the EC50 (HIV-1 strains; Human immunodeficiency virus 1, PBMC, read-out: EC50 of positive control, assay validation, PBMC assays) of the same compound?
Answer: The EC50 was ≤ 10 nM.

Question: And the SI (HIV-1 strains; PBMC, Clade A (92RW016))?
Answer: Its SI is >500.

Question: And the SI (HIV-1 strains; PBMC, Clade B (302056))?
Answer: Its SI is >100.

Question: And the SI (HIV-1 strains; PBMC, Clade C (92BR025))?
Answer: The SI was >250.

Question: What about the SI (HIV-1 strains; PBMC, Clade D (92UG046)) of the same compound?
Answer: The SI was >333.

Question: And the SI (HIV-1 strains; PBMC, Clade EA (CMU02))?
Answer: The SI was >125.

Question: What about the SI (HIV-1 strains; PBMC, Clade F (93BR020)) of the same compound?
Answer: The SI was >500.

Question: What about the SI (HIV-1 strains; PBMC, Clade G (JV1083)) of the same compound?
Answer: Its SI is >250.

Question: What about the SI (HIV-1 strains; PBMC, Clade O (BCF01)) of the same compound?
Answer: Its SI is >250.

Question: And the SI (HIV-1 strains; PBMC, ROJO (SI))?
Answer: The SI was >500.

Question: And the SI (HIV-1 strains; PBMC, SLKA (NSI))?
Answer: The SI was >250.

Question: What about the SI (HIV-1 strains; PBMC, TEKI (NSI)) of the same compound?
Answer: Its SI is >500.

Question: What about the SI (HIV-1 strains; PBMC, WEJO (SI)) of the same compound?
Answer: Its SI is >3333.

Question: What about the EC50 (HIV-2 strains; Human immunodeficiency virus 2, HIV-2 CBL-20, AZT column) of the same compound?
Answer: Its EC50 is 1 nM.

Question: And the SI (HIV-2 strains; HIV-2 CBL-20)?
Answer: The SI was >1000.

Question: What about the SI (HIV-2 strains; HIV-2 CDC 310319) of the same compound?
Answer: Its SI is >1000.

Question: For `O=C1Nc2ccc(Cl)cc2[C@@](C#CC2CC2)(C(F)(F)F)O1` [efavirenz], which “inhibition of cell-to-cell fusion” value [2] is on record?
Answer: Its value is “did not inhibit cell-to-cell fusion”.

Question: And the “inhibition of cell-to-cell fusion” value [1]?
Answer: Its value is “did not inhibit cell-to-cell fusion”.

Question: Which “time post infection that addition could be delayed before loss of HIV-1 inhibitory activity” value (HIV-1 NL4.3) does the source give for `Cc1ccnc2c1NC(=O)c1cccnc1N2C1CC1` [nevirapine] here?
Answer: Its value is “up to 6 h”.

Question: For `CCCCCCCCCc1ccc(OCCOCCOCCOCCOCCOCCOCCOCCOCCO)cc1` [nonoxynol 9], which “susceptibility to HSV-2 infection after exposure” value (HSV-2 strain G) is on record?
Answer: Its value is “susceptibility is greatly increased”.

Question: What does the source list for Dextran Sulfate?
Answer: EC50 (HIV-1 strains; [3]): 1.25 µg/mL; SI (HIV-1 strains; [3]): >80

Question: For maraviroc, which “inhibition of cell-to-cell fusion” value [2] is on record?
Answer: The value was “failed to inhibit fusion”.
